From ChEMBL document CHEMBL1201862, “PubChem BioAssay data set” (2004)
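Results reflect a 48-hour exposure of cells in 96-well plates to compound at five concentrations. At the GI50, growth is halved.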 Calls of active or inactive are those of the source. Rule as the data show it: active = GI50 up to about 1.1 µM and inactive = higher.

Columns and labels:
Assay in all cases: inhibition of tumour cell growth, NCI panel, 48 h
SW-620 = system: SW-620
NCI-H522 = system: NCI-H522
SF-539 = system: SF-539
SN12C = system: SN12C
SK-MEL-2 = system: SK-MEL-2
HL-60 = system: HL-60
UO-31 = system: UO-31
SK-MEL-28 = system: SK-MEL-28
OVCAR-8 = system: OVCAR-8
MDA-N = system: MDA-N
HT-29 = system: HT-29
SK-OV-3 = system: SK-OV-3
UACC-257 = system: UACC-257
SK-MEL-5 = system: SK-MEL-5
HCC 2998 = system: HCC 2998
LOX IMVI = system: LOX IMVI
SNB-75 = system: SNB-75
IGROV-1 = system: IGROV-1
HOP-62 = system: HOP-62
CAKI-1 = system: CAKI-1
DU-145 = system: DU-145
KM12 = system: KM12
786-0 = system: 786-0
SF-268 = system: SF-268
NCI-H460 = system: NCI-H460
NCI-H226 = system: NCI-H226
MDA-MB-231 = system: MDA-MB-231
U-251 = system: U-251
OVCAR-5 = system: OVCAR-5
MCF7 = system: MCF7
A549 = system: A549
PC-3 = system: PC-3
MDA-MB-435 = system: MDA-MB-435
EKVX = system: EKVX
HCT-116 = system: HCT-116
SNB-19 = system: SNB-19
ACHN = system: ACHN
MOLT-4 = system: MOLT-4
NCI/ADR-RES = system: NCI/ADR-RES
A498 = system: A498
HCT-15 = system: HCT-15
SF-295 = system: SF-295
K562 = system: K562
OVCAR-3 = system: OVCAR-3
BT-549 = system: BT-549
HOP-92 = system: HOP-92
Malme-3M = system: Malme-3M
UACC-62 = system: UACC-62
CCRF-CEM = system: CCRF-CEM
NCI-H23 = system: NCI-H23
OVCAR-4 = system: OVCAR-4
TK-10 = system: TK-10
M14 = system: M14
Hs-578T = system: Hs-578T
T47D = system: T47D
RPMI-8226 = system: RPMI-8226
RXF 393 = system: RXF 393
COLO 205 = system: COLO 205

In the case of `Cc1nc2ccccc2n1Cc1ccc(NC(=S)NC2CCCCC2)cc1`, the GI50 (SW-620) is reported as 41.3 µM (inactive), the GI50 (NCI-H522) is reported as 8.34 µM (inactive) and the GI50 (SF-539) is reported as > 72.3 µM (inactive). For the same compound, the GI50 (SN12C) was 7.03 µM (inactive), the GI50 (SK-MEL-2) was 15.7 µM (inactive) and the GI50 (HL-60) was 25.6 µM (inactive). The GI50 (UO-31) was 41 µM (inactive), the GI50 (SK-MEL-28) was 29.7 µM (inactive) and the GI50 (OVCAR-8) was 30.9 µM (inactive). For the same compound, the GI50 (MDA-N) was 5.79 µM (inactive), the GI50 (HT-29) was 30.3 µM (inactive) and the GI50 (SK-OV-3) was > 92.7 µM (inactive). The GI50 (UACC-257) was 13.5 µM (inactive), the GI50 (SK-MEL-5) was 4.14 µM (inactive) and the GI50 (HCC 2998) was 36.6 µM (inactive). For the same compound, the GI50 (LOX IMVI) was 10.6 µM (inactive), the GI50 (SNB-75) was 24 µM (inactive) and the GI50 (IGROV-1) was 20 µM (inactive). For the same compound, the GI50 (HOP-62) was > 75 µM (inactive), the GI50 (CAKI-1) was 38 µM (inactive) and the GI50 (DU-145) was 36.8 µM (inactive). The GI50 (KM12) was 24.3 µM (inactive), the GI50 (786-0) was 36.9 µM (inactive) and the GI50 (SF-268) was 17.2 µM (inactive). The GI50 (NCI-H460) was 35.5 µM (inactive), the GI50 (NCI-H226) was 24.9 µM (inactive) and the GI50 (MDA-MB-231) was 38.1 µM (inactive). For the same compound, the GI50 (U-251) was 32.6 µM (inactive), the GI50 (OVCAR-5) was > 100 µM (inactive) and the GI50 (MCF7) was 4.86 µM (inactive). For the same compound, the GI50 (A549) was 17.4 µM (inactive), the GI50 (PC-3) was 31.3 µM (inactive) and the GI50 (MDA-MB-435) was 6.84 µM (inactive). For the same compound, the GI50 (EKVX) was 12.3 µM (inactive), the GI50 (HCT-116) was 34.9 µM (inactive) and the GI50 (SNB-19) was 32.8 µM (inactive). The GI50 (ACHN) was 4.49 µM (inactive), the GI50 (MOLT-4) was 5.36 µM (inactive) and the GI50 (NCI/ADR-RES) was 35.6 µM (inactive). For the same compound, the GI50 (A498) was 33.6 µM (inactive), the GI50 (HCT-15) was 8.95 µM and the GI50 (SF-295) was 10.1 µM (inactive). The GI50 (K562) was 14.7 µM (inactive), the GI50 (OVCAR-3) was 10.8 µM (inactive) and the GI50 (BT-549) was 15.4 µM (inactive). For the same compound, the GI50 (HOP-92) was 41.3 µM (inactive), the GI50 (Malme-3M) was 21.7 µM (inactive) and the GI50 (UACC-62) was 6.3 µM (inactive). For the same compound, the GI50 (CCRF-CEM) was 10 µM (inactive), the GI50 (NCI-H23) was 17.5 µM (inactive) and the GI50 (OVCAR-4) was 10.1 µM (inactive). The GI50 (TK-10) was > 100 µM (inactive), the GI50 (M14) was 30.1 µM (inactive) and the GI50 (Hs-578T) was 29 µM (inactive). The GI50 (T47D) was 5.74 µM (inactive), the GI50 (RPMI-8226) was 13.4 µM (inactive) and the GI50 (RXF 393) was 23.8 µM (inactive). For the same compound, the GI50 (COLO 205) was 31.1 µM (inactive).
With `O=C1C=CC=C/C1=C1\N=C(c2ccccc2OCC(=O)c2ccc(Br)cc2)SS1` the GI50 (SW-620) was > 100 µM (inactive), the GI50 (SF-539) was 24.4 µM (inactive) and the GI50 (SN12C) was > 100 µM (inactive). The GI50 (SK-MEL-2) was 42.5 µM (inactive), the GI50 (HL-60) was > 100 µM (inactive) and the GI50 (UO-31) was > 100 µM (inactive). For the same compound, the GI50 (SK-MEL-28) was > 100 µM (inactive), the GI50 (OVCAR-8) was 93.5 µM (inactive) and the GI50 (MDA-N) was > 100 µM (inactive). The GI50 (HT-29) was > 100 µM (inactive), the GI50 (SK-OV-3) was 34.3 µM (inactive) and the GI50 (UACC-257) was > 100 µM (inactive). The GI50 (SK-MEL-5) was > 100 µM (inactive), the GI50 (HCC 2998) was > 100 µM (inactive) and the GI50 (LOX IMVI) was > 100 µM (inactive). For the same compound, the GI50 (SNB-75) was 8.93 µM (inactive), the GI50 (IGROV-1) was 9.23 µM (inactive) and the GI50 (HOP-62) was 4.08 µM (inactive). For the same compound, the GI50 (CAKI-1) was 34.6 µM (inactive), the GI50 (DU-145) was > 100 µM (inactive) and the GI50 (KM12) was > 100 µM (inactive). The GI50 (786-0) was 31.5 µM (inactive), the GI50 (SF-268) was 32 µM (inactive) and the GI50 (NCI-H460) was > 100 µM (inactive). The GI50 (NCI-H226) was 48 µM (inactive), the GI50 (MDA-MB-231) was > 10 µM (inactive) and the GI50 (U-251) was 40.3 µM (inactive). For the same compound, the GI50 (OVCAR-5) was > 100 µM (inactive), the GI50 (MCF7) was > 100 µM (inactive) and the GI50 (A549) was > 100 µM (inactive). The GI50 (PC-3) was > 100 µM (inactive), the GI50 (MDA-MB-435) was > 100 µM (inactive) and the GI50 (EKVX) was 89.9 µM (inactive). For the same compound, the GI50 (HCT-116) was 78.9 µM (inactive), the GI50 (SNB-19) was > 100 µM (inactive) and the GI50 (ACHN) was 62.7 µM (inactive). The GI50 (MOLT-4) was > 10 µM (inactive), the GI50 (NCI/ADR-RES) was > 100 µM (inactive) and the GI50 (A498) was > 100 µM (inactive). For the same compound, the GI50 (HCT-15) was greater than 100 µM, the GI50 (SF-295) was 28.2 µM (inactive) and the GI50 (K562) was > 100 µM (inactive). For the same compound, the GI50 (OVCAR-3) was > 100 µM (inactive), the GI50 (BT-549) was 13.3 µM (inactive) and the GI50 (HOP-92) was 63.8 µM (inactive). The GI50 (Malme-3M) was > 100 µM (inactive), the GI50 (UACC-62) was 23.1 µM (inactive) and the GI50 (CCRF-CEM) was > 100 µM (inactive). For the same compound, the GI50 (NCI-H23) was 35.2 µM (inactive), the GI50 (OVCAR-4) was 40.1 µM (inactive) and the GI50 (TK-10) was 13.5 µM (inactive). For the same compound, the GI50 (M14) was 73.3 µM (inactive), the GI50 (Hs-578T) was 15.2 µM (inactive) and the GI50 (T47D) was > 100 µM (inactive). The GI50 (RPMI-8226) was > 100 µM (inactive), the GI50 (RXF 393) was 30 µM (inactive) and the GI50 (COLO 205) was > 100 µM (inactive).
